Experimental data taken from patent US10278971B2, “Fluorocyclopentenylcytosine methods of use” (Rexahn Pharmaceuticals, Inc., priority 2015, dated 2019).

Legend:
A549 cells = test: Protein expression by western blot; format: cell-based, human
Experimental: (§1) The mechanism of cell cycle arrest was investigated by measuring cell cycle proteins expression using western blotting. The influence of RX-3117 on protein expression during different treatment conditions was analyzed by western blot. Cells were lysed using cell lysis buffer 1× (Cell Signaling, Danvers, Mass., USA) containing 4% protease inhibitor cocktail (Roche Diagnostics, Mannheim, Germany) on ice for 30 minutes and centrifuged for 10 minutes at 4° C. at 14,000 rpm. The protein containing supernatant was collected and the Bio-Rad assay was performed to determine protein amount as described in Lemos et al., Pharmacogenomics, 12(2):159-70 (2011). The following antibodies were used for protein expression: DNMT1 (Cell Signaling, 1:1000 #5032S), DNMT3A (Cell Signaling 1:1000 #2160S), DNMT3B (Abcam, 1; 1000), Chk2 (Cell Signaling 1:1000 #6334P), Chk1 (Cell Signaling 1:1000), p-CDC25C (Cell Signaling 1:1000 #4901S), Cdk1 (Cell Signaling 1:1000 #9112S), Cdk2 (Cell Signaling 1:1000 #2546S), wee1 (Cell Signaling 1:1000), 5139-γH2A.X (Cell Signaling, 1:1000), β actin (Sigma, 1:10,000), Caspase 9 (Cell Signaling, 1:1000), PARP (Roche 2003, 1:1000), p53 (Cell Signaling, 1:1000, #9282). The antibodies were diluted in 1:1 solution Rockland buffer (Rockland Inc., Philadelphia, Pa., USA) and PBS supplemented with 0.05% Tween® 20. The proteins were separated in 20% SDS-PAGE and transferred to a PVDF membrane. For fluorescent signal secondary antibodies goat anti-mouse InfraRedDye and goat anti-rabbit InfraRedDye were used. The proteins were detected by an Odyssey InfraRed Imager (Li-COR Bioscience, Lincoln, Nebr., USA).
(§2) The influence of RX-3117 on protein expression during different treatment conditions was analyzed by western blot. Cells were lysed using 1× cell lysis buffer (Cell Signaling, Danvers, Mass., USA) containing 4% protease inhibitor cocktail (Roche Diagnostics, Mannheim, Germany) on ice for 30 minutes and centrifuged for 10 minutes at 4° C. at 14,000 rpm. Bio-Rad assay was performed to determine protein amount in the collected supernatant as described earlier (Lemos C, Kathmann I, Giovannetti E, Calhau C, Jansen G and Peters G J: Impact of cellular folate status and epidermal growth factor receptor expression on BCRP/ABCG2-mediated resistance to gefitinib and erlotinib. Br J Cancer 100: 1120-7, 2009). The following antibodies were used for protein expression: γH2A.X (cat#9718, Cell Signaling, 1:1000), β-actin (Sigma, 1:10,000), Cdc25C Ser216 (cat#4901, Cell Signaling, 1:1000), Cdk1 Tyr15 (cat#9111, Cell Signaling, 1:1000), […] (cat#2197S, Cell Signaling, 1:1000), Histone 3 (cat#4499, Cell Signaling). Antibodies were diluted in 1:1 solution with Rockland buffer (Rockland Inc, Philadelphia, Pa.) and phosphate buffered saline (PBS) supplemented with 0.05 Tween 20. Proteins were separated in 20% SDS-PAGE gel and transferred to polyvinylidene difluoride (PVDF) membrane. For fluorescent signal secondary anti-bodies goat anti-mouse InfraRedDye and goat anti-rabbit InfraRedDye were used. Proteins were detected by an Odyssey InfraRed Imager (Li-COR Bioscience, Lincoln, Nebr.).

SW1573 cells = test: Protein expression by western blot; format: cell-based, human
Experimental: as §1, §2

A2780 = test: Clonogenic assay, radiosensitizing effect; format: cell-based, human
Experimental: (§3) Exponential growing A2780, SW1573, A549, H460 and SW1573/G-cells were exposed to 1 μM RX-3117 or untreated (control) for 24 h and irradiated with single doses γ-radiation (0-6 Gy) using a ^60Co source (Gammacell 200, Atomic Energy of Canada, Ltd). Subsequently, 500 cells/T25 flasks were plated and allowed to form colonies. After ten days colonies were fixed with 100% ethanol and stained with 10% Giemsa stain solution (Merck Chemicals BV, Amsterdam, the Netherlands) for colonies counting. Plating efficiency (PE) was calculated by dividing the number of colonies formed through the number of cells plated and normalized for cytotoxicity induced by control. To illustrate the effect of RX-3117 on radiation, dose modifying factor (DMF) was calculated as described earlier (Bijnsdorp I V, van den Berg J, Kuipers G K, Wedekind L E, Slotman B J, van Rijn J, Lafleur M V M and Sminia P: Radiosensitizing potential of the selective cyclooygenase-2 (COX-2) inhibitor meloxicam on human glioma cells. J Neurooncol 85: 25-31, 2007).

A549 = test: Clonogenic assay, radiosensitizing effect; format: cell-based, human; conditions: A549, 1 μM pre-incubation 24 h, irradiation 0-6 Gy
Experimental: as §3

H460 = test: Clonogenic assay, radiosensitizing effect; format: cell-based, human; conditions: H460, 1 μM pre-incubation 24 h, irradiation
Experimental: as §3

SW1573/G- = test: Clonogenic assay, radiosensitizing effect; format: cell-based, human; conditions: 1 μM pre-incubation 24 h, irradiation
Experimental: as §3

SW1573 = test: Clonogenic assay, radiosensitizing effect; format: cell-based, human
Experimental: as §3

DNMT1 = test: DNMT enzyme activity in isolated nuclei (DNA methyltransferase assay kit); format: cell-based, human; conditions: A2780 nuclear extracts, 1 μM, 24 hr
Experimental: DNMT1 protein expression was measured by Western Blotting after exposure to RX-3117 for 24 or 48 hr. DNMT1 RNA expression was measured by real-time PCR after 24 and 48 hr exposure to RX-3117. DNMT enzyme activity was measured in isolated nuclei after exposure 1 μM RX-3117 or 5 μM aza-CdR using a DNA methyltransferase assay kit provided by EpiGentek using the ability of a CpG dinding domain to bind to methylated DNA. In A549 cells the effect of 5 μM RX-3117 on overall methylation was measured with a specific antibody against 5-methyl-cytosine. Bands on Western blots were visualized using appropriate InfraRedDye using an Odyssey InfraRed imager.

cytidine deaminase (CDA) = cytidine deaminase (CDA) (Homo sapiens, UniProt P32320); conditions: cited from earlier work
[1] = SW1573, 10 μM, 48 hour exposure
[2] = SW1573, 24 hour exposure to increasing concentrations

cytidine deaminase (CDA), sequence (P32320 whole entry, species assumed): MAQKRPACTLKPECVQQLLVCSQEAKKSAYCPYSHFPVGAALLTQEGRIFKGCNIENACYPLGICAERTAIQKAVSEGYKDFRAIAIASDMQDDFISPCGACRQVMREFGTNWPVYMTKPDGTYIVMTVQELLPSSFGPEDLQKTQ

With `Nc1ccn([C@@H]2C(F)=C(CO)[C@@H](O)[C@H]2O)c(=O)n1` [RX-3117, 4-amino-1-((1S,4R,5S)-2-fluoro-4,5-dihydroxy-3-hydroxymethyl-cyclopent-2-enyl)-1H-pyrimidin-2-one] the p53 expression levels (A549 cells; A549, 1 μM and 5 μM) was “increased”, the “expression of p16INK4A and MGMT” value (A549 cells; A549, 5 μM, 24 hr exposure) was “increased” and the “DNMT3A and DNMT3B expression levels” value (A549 cells; A549, 1-75 μM) was “increased”. For the same compound, the “pro-caspase 9” value (A549 cells; A549, 24 hour exposure to increasing concentrations) was “decreased”, the “γH2A.X protein expression, combination with irradiation” value (SW1573 cells; SW1573, 0.3 μM plus irradiation) was “more pronounced” and the “double strand break damage marker γH2A.X” value (SW1573 cells; SW1573, 0.3 μM, 48 h exposure) was “increased”. For the same compound, the “expression of p16INK4A and MGMT” value (SW1573 cells; SW1573, 5 μM, 24 hr exposure) was “increased”, the “Chk1 and Cdk2 expression levels” value (SW1573 cells; [1]) was “increased” and the p-Cdc25C expression levels (SW1573 cells; [1]) was “decreasing”. For the same compound, the “cleaved PARP” value (SW1573 cells; [2]) was “induced cleaved PARP”, the “pro-caspase 9” value (SW1573 cells; [2]) was “decreased” and the wee1 expression levels (SW1573 cells; [2]) was “decreased”. For the same compound, the “double-strand breaks (DSB), biomarker γH2A.X” value (SW1573 cells; SW1573, 48 hour exposure) was “induced double-strand breaks”, the “dose modifying factor (DMF)” value (A2780; A2780, 1 μM pre-incubation 24 h, irradiation 0-6 Gy) was 1.8 and the “plating efficiency compared to control” value (A2780; A2780, pre-incubation 1 μM 24 h, 4 Gy) was “five times lower”. For the same compound, the “dose modifying factor (DMF)” value (A549) was 1.8, the radiosensitizing effect (H460) was “poor radiosensitizing effect” and the “dose modifying factor (DMF)” value (SW1573/G-) was 1.4. For the same compound, the “colonies outgrowth, fractionated radio therapy” value (SW1573; SW1573, 1 μM prior to 5 times 2 Gy) was “lowest colonies outgrowth”, the “dose modifying factor (DMF)” value (SW1573; SW1573, 5 μM (FIG. 16 legend) pre-incubation 24 h, irradiation) was 1.5 and the “inhibition of DNMT1 activity” value (DNMT1) was 32%. The “substrate for cytidine deaminase (CDA)” value (cytidine deaminase (CDA); Peters et al. 2013) was “poor substrate” and the rate of deamination (cytidine deaminase (CDA); compared with gemcitabine) was “much slower than gemcitabine”.
